One may read the Ki as a measure of affinity in units of concentration, obtained from inhibition or displacement.

The target of one assay is GST-tagged-Wee1 kinase (Homo sapiens, UniProt P30291). Description: Wee1 time-resolved fluorescence equilibrium binding assay (displacement of Oregon Green-labeled ATP-competitive kinase probe).
Sequence of GST-tagged-Wee1 kinase (P30291 whole entry): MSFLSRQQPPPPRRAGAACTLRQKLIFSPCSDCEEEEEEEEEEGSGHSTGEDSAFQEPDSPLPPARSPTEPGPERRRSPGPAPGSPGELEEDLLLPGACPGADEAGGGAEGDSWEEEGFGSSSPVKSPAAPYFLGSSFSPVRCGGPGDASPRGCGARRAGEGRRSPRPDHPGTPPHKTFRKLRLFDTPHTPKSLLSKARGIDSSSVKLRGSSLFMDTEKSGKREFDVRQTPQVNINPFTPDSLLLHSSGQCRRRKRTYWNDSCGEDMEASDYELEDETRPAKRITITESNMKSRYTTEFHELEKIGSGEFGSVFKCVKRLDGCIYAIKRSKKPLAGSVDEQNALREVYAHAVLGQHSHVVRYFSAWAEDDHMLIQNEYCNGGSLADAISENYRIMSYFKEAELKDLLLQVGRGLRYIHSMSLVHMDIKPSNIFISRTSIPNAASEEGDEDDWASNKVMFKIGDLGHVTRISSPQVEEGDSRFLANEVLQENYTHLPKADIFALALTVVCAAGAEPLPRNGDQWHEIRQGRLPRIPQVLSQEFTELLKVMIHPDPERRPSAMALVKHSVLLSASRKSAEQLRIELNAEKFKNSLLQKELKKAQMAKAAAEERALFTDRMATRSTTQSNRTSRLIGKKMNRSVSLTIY
Details: not given
The protocol:
Wee1 kinase was assayed using a time-resolved fluorescence equilibrium binding assay monitoring displacement of a rapidly reversible Oregon Green-labeled ATP-competitive kinase probe (N-(2-(2-(2-(4-(4-(5-chloro-4-(2-(1-hydroxycyclobutyl)thiazol-5-yl)-1H-pyrrolo[2,3-b]pyridin-2-yl)phenyl)piperazin-1-yl)ethoxy)ethoxy)ethyl)-2′,7′-difluoro-3′,6′-dihydroxy-3-oxo-3H-spiro[isobenzofuran-1,9′-xanthene]-5-carboxamide) by competitive Wee1 inhibitors.
In turn, `Cc1nn(-c2c(F)cccc2Cl)c(=O)c2cnc(Nc3ccc4c(c3)CC(N(C)C)C4)nc12` (stereo not drawn) [Example 366, 6-(2-chloro-6-fluorophenyl)-2-{[2-(dimethylamino)-2,3-dihydro-1H-inden-5-yl]amino}-8-methylpyrimido[4,5-d]pyridazin-5(6H)-one] returned a Ki of 0.53 nM. In the case of `CN1CCN(c2ccc(Nc3ncc4c(=O)n(-c5c(Cl)cccc5Cl)nc(-c5ccc(C(=O)O)cc5)c4n3)cc2)CC1` [Example 290, 4-[6-(2,6-dichlorophenyl)-2-{[4-(4-methylpiperazin-1-yl)phenyl]amino}-5-oxo-5,6-dihydropyrimido[4,5-d]pyridazin-8-yl]benzoic acid], the Ki was 0.33 nM. `CN1CCN(c2ccc(Nc3ncc4c(=O)n(-c5c(F)cccc5Cl)nc(-c5ccccn5)c4n3)cc2)CC1` [Example 309, 6-(2-chloro-6-fluorophenyl)-2-{[4-(4-methylpiperazin-1-yl)phenyl]amino}-8-(pyridin-2-yl)pyrimido[4,5-d]pyridazin-5(6H)-one] came in with a Ki of 680 nM.

Take `CN1CCN(c2ccc(Nc3ncc4c(=O)n(-c5c(Cl)cccc5Cl)nc(C5CCCC5)c4n3)cc2)CC1` [Example 74, 8-cyclopentyl-6-(2,6-dichlorophenyl)-2-{[4-(4-methylpiperazin-1-yl)phenyl]amino}pyrimido[4,5-d]pyridazin-5(6H)-one]: the inhibition constant (Ki) was 1 nM. On the same count and under the same terms, the figure for `Cc1ccccc1-n1nc(-c2ccc(Cl)cc2Cl)c2nc(Nc3ccc(N4CCN(C)CC4)cc3)ncc2c1=O` [Example 41, 8-(2,4-dichlorophenyl)-6-(2-methylphenyl)-2-{[4-(4-methylpiperazin-1-yl)phenyl]amino}pyrimido[4,5-d]pyridazin-5(6H)-one] is 38 nM; for `C=CCn1nc(-c2cccs2)c2nc(Nc3ccc(N4CCN(C(C)C)CC4)c(C)c3)ncc2c1=O` [Example 127, 6-allyl-2-{[4-(4-isopropylpiperazin-1-yl)-3-methylphenyl]amino}-8-(2-thienyl)pyrimido[4,5-d]pyridazin-5(6H)-one] it is 4 nM; for `O=c1c2cnc(Nc3ccc(N4CCNCC4)cc3)nc2cnn1-c1c(Cl)cccc1Cl` [Example 325, 6-(2,6-dichlorophenyl)-2-{[4-(piperazin-1-yl)phenyl]amino}pyrimido[4,5-d]pyridazin-5(6H)-one] it is 0.7 nM. Same read-out and setting: for `O=c1c2cnc(Nc3ccc(N4CCNCC4)cc3)nc2c(-c2nccs2)nn1-c1c(Cl)cccc1Cl` [Example 344, 6-(2,6-dichlorophenyl)-2-{[4-(piperazin-1-yl)phenyl]amino}-8-(1,3-thiazol-2-yl)pyrimido[4,5-d]pyridazin-5(6H)-one] the value was 0.25 nM. On to `CC(=O)N1CCN(c2ccc(Nc3ncc4c(=O)n(-c5c(Cl)cccc5Cl)nc(-c5ccccn5)c4n3)cc2)CC1` [Example 374, 2-{[4-(4-acetylpiperazin-1-yl)phenyl]amino}-6-(2,6-dichlorophenyl)-8-(pyridin-2-yl)pyrimido[4,5-d]pyridazin-5(6H)-one], for which affinity was put at a Ki of 0.67 nM. In turn, `CN1CCN(c2ccc(Nc3ncc4c(=O)n(-c5ccncc5Cl)nc(-c5ccccn5)c4n3)cc2)CC1` [Example 384, 6-(3-chloropyridin-4-yl)-2-{[4-(4-methylpiperazin-1-yl)phenyl]amino}-8-(pyridin-2-yl)pyrimido[4,5-d]pyridazin-5(6H)-one] showed a Ki of 13 nM. `O=c1c2cnc(Nc3ccc4c(c3)CNCC4)nc2c(-c2ccncc2)nn1-c1c(Cl)cccc1Cl` [Example 224, 6-(2,6-dichlorophenyl)-8-(pyridin-4-yl)-2-(1,2,3,4-tetrahydroisoquinolin-7-ylamino)pyrimido[4,5-d]pyridazin-5(6H)-one]: the inhibition constant (Ki) was 0.07 nM. Same read-out and setting: the figure for `CN1Cc2cc(Nc3ncc4c(=O)n(-c5c(Cl)cccc5Cl)nc(CO)c4n3)ccc2C2(CC2)C1` [Example 432, 6-(2,6-dichlorophenyl)-8-(hydroxymethyl)-2-[(2′-methyl-2′,3′-dihydro-1′H-spiro[cyclopropane-1,4′-isoquinolin]-7′-yl)amino]pyrimido[4,5-d]pyridazin-5(6H)-one] is 0.2 nM; for `O=c1c2cnc(Nc3ccc4c(c3)CNCC4)nc2cnn1-c1c(Cl)cccc1Cl` [Example 327, 6-(2,6-dichlorophenyl)-2-(1,2,3,4-tetrahydroisoquinolin-7-ylamino)pyrimido[4,5-d]pyridazin-5(6H)-one] it is 0.93 nM. On the same count and under the same terms, for `Cc1ccccc1-n1nc(-c2cccc(N3CCCC3)n2)c2nc(Nc3ccc(N4CCN(C)CC4)cc3)ncc2c1=O` [Example 182, 6-(2-methylphenyl)-2-{[4-(4-methylpiperazin-1-yl)phenyl]amino}-8-[6-(pyrrolidin-1-yl)pyridin-2-yl]pyrimido[4,5-d]pyridazin-5(6H)-one] the value was 12 nM; for `CN1CCN(c2ccc(Nc3ncc4c(=O)n(-c5c(Cl)cccc5Cl)nc(-c5cccc(N6CCCC6)n5)c4n3)cc2)CC1` [Example 180, 6-(2,6-dichlorophenyl)-2-{[4-(4-methylpiperazin-1-yl)phenyl]amino}-8-[6-(pyrrolidin-1-yl)pyridin-2-yl]pyrimido[4,5-d]pyridazin-5(6H)-on], 2 nM; for `COc1ccccc1-n1nc(-c2ccc(Cl)cc2Cl)c2nc(Nc3ccc(N4CCN(C)CC4)cc3)ncc2c1=O` [Example 43, 8-(2,4-dichlorophenyl)-6-(2-methoxyphenyl)-2-{[4-(4-methylpiperazin-1-yl)phenyl]amino}pyrimido[4,5-d]pyridazin-5(6H)-one], 260 nM. For the compound `CN1CCN(c2ccc(Nc3ncc4c(=O)n(-c5cnccc5O)nc(-c5ccccn5)c4n3)cc2)CC1` [Example 310, 6-(4-hydroxypyridin-3-yl)-2-{[4-(4-methylpiperazin-1-yl)phenyl]amino}-8-(pyridin-2-yl)pyrimido[4,5-d]pyridazin-5(6H)-one], the affinity, expressed as Ki, was 3.6 nM.

Still in this assay, the particulars now being: read-out: Wee-1 inhibition Ki.
As for “6-(2-chlorophenyl)-8-(2-furyl)-2-{[4-(4-methylpiperazin-1-yl)phenyl]amino}pyrimido[4,5-d]pyridazin-5(6H)-one [Example 33]”, the Ki came out at 0.3 nM.

Values taken from patent US8796289B2 (AbbVie Inc., priority 2011, dated 2014).
